Measurements as given in ChEMBL document CHEMBL1201862, “PubChem BioAssay data set” (2004).
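Assay format: 96-well plates, 48-hour exposure. The concentration for 50% growth inhibition is given as GI50.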 Calls of active or inactive are those of the source. Cut-off read from the data, not from the text of the source: active = GI50 up to about 1.1 µM and inactive = higher.

Legend:
Assay in all cases: NCI-60 cell line screen, 48 h
BT-549 = test system: BT-549
CAKI-1 = test system: CAKI-1
UACC-257 = test system: UACC-257
MDA-N = test system: MDA-N
OVCAR-5 = test system: OVCAR-5
NCI-H23 = test system: NCI-H23
MOLT-4 = test system: MOLT-4
SN12C = test system: SN12C
CCRF-CEM = test system: CCRF-CEM
HT-29 = test system: HT-29
HCC 2998 = test system: HCC 2998
Malme-3M = test system: Malme-3M
HCT-116 = test system: HCT-116
MCF7 = test system: MCF7
SNB-19 = test system: SNB-19
Hs-578T = test system: Hs-578T
DU-145 = test system: DU-145
SNB-75 = test system: SNB-75
COLO 205 = test system: COLO 205
SF-539 = test system: SF-539
K562 = test system: K562
SF-295 = test system: SF-295
NCI-H460 = test system: NCI-H460
SK-MEL-5 = test system: SK-MEL-5
MDA-MB-435 = test system: MDA-MB-435
SK-MEL-28 = test system: SK-MEL-28
M14 = test system: M14
PC-3 = test system: PC-3
HL-60 = test system: HL-60
OVCAR-3 = test system: OVCAR-3
ACHN = test system: ACHN
SF-268 = test system: SF-268
A498 = test system: A498
NCI-H522 = test system: NCI-H522
SW-620 = test system: SW-620
786-0 = test system: 786-0
EKVX = test system: EKVX
NCI-H226 = test system: NCI-H226
OVCAR-4 = test system: OVCAR-4
KM12 = test system: KM12
SR = test system: SR
MDA-MB-231 = test system: MDA-MB-231
HOP-62 = test system: HOP-62
OVCAR-8 = test system: OVCAR-8
A549 = test system: A549
U-251 = test system: U-251
UACC-62 = test system: UACC-62
TK-10 = test system: TK-10
SK-OV-3 = test system: SK-OV-3
T47D = test system: T47D
UO-31 = test system: UO-31
IGROV-1 = test system: IGROV-1
RXF 393 = test system: RXF 393
HOP-92 = test system: HOP-92
HCT-15 = test system: HCT-15
NCI/ADR-RES = test system: NCI/ADR-RES
LOX IMVI = test system: LOX IMVI
SK-MEL-2 = test system: SK-MEL-2
RPMI-8226 = test system: RPMI-8226

Compound: CCNC(=O)Nc1ccccn1
- GI50 (BT-549): > 100 µM (inactive)
- GI50 (CAKI-1): > 100 µM (inactive)
- GI50 (UACC-257): > 100 µM (inactive)
- GI50 (MDA-N): > 100 µM (inactive)
- GI50 (OVCAR-5): > 100 µM (inactive)
- GI50 (NCI-H23): > 100 µM (inactive)
- GI50 (MOLT-4): > 100 µM (inactive)
- GI50 (SN12C): > 100 µM (inactive)
- GI50 (CCRF-CEM): > 100 µM (inactive)
- GI50 (HT-29): > 100 µM (inactive)
- GI50 (HCC 2998): > 100 µM (inactive)
- GI50 (Malme-3M): > 100 µM (inactive)
- GI50 (HCT-116): > 100 µM (inactive)
- GI50 (MCF7): > 100 µM (inactive)
- GI50 (SNB-19): > 100 µM (inactive)
- GI50 (Hs-578T): > 100 µM (inactive)
- GI50 (DU-145): > 100 µM (inactive)
- GI50 (SNB-75): 84.5 µM (inactive)
- GI50 (COLO 205): > 100 µM (inactive)
- GI50 (SF-539): > 100 µM (inactive)
- GI50 (K562): > 100 µM (inactive)
- GI50 (SF-295): > 100 µM (inactive)
- GI50 (NCI-H460): > 100 µM (inactive)
- GI50 (SK-MEL-5): > 100 µM (inactive)
- GI50 (MDA-MB-435): > 100 µM (inactive)
- GI50 (SK-MEL-28): > 100 µM (inactive)
- GI50 (M14): > 100 µM (inactive)
- GI50 (PC-3): > 100 µM (inactive)
- GI50 (HL-60): > 100 µM (inactive)
- GI50 (OVCAR-3): > 100 µM (inactive)
- GI50 (ACHN): > 100 µM (inactive)
- GI50 (SF-268): > 100 µM (inactive)
- GI50 (A498): > 100 µM (inactive)
- GI50 (NCI-H522): > 100 µM (inactive)
- GI50 (SW-620): > 100 µM (inactive)
- GI50 (786-0): > 100 µM (inactive)
- GI50 (EKVX): > 100 µM (inactive)
- GI50 (NCI-H226): > 100 µM (inactive)
- GI50 (OVCAR-4): > 100 µM (inactive)
- GI50 (KM12): > 100 µM (inactive)
- GI50 (SR): > 100 µM (inactive)
- GI50 (MDA-MB-231): > 100 µM (inactive)
- GI50 (HOP-62): > 100 µM (inactive)
- GI50 (OVCAR-8): > 100 µM (inactive)
- GI50 (A549): > 100 µM (inactive)
- GI50 (U-251): > 100 µM (inactive)
- GI50 (UACC-62): > 100 µM (inactive)
- GI50 (TK-10): > 100 µM (inactive)
- GI50 (SK-OV-3): > 100 µM (inactive)
- GI50 (T47D): > 100 µM (inactive)
- GI50 (UO-31): > 100 µM (inactive)
- GI50 (IGROV-1): > 100 µM (inactive)
- GI50 (RXF 393): > 100 µM (inactive)
- GI50 (HOP-92): > 100 µM (inactive)

Compound: O=C(Nc1ccc(Cl)cc1Cl)c1cc2nc3ccccc3c(=O)n2c2ccccc12
- GI50 (BT-549): > 10 µM (inactive)
- GI50 (CAKI-1): > 10 µM (inactive)
- GI50 (UACC-257): > 10 µM (inactive)
- GI50 (MDA-N): > 10 µM (inactive)
- GI50 (OVCAR-5): > 10 µM (inactive)
- GI50 (NCI-H23): > 10 µM (inactive)
- GI50 (CCRF-CEM): > 10 µM (inactive)
- GI50 (HT-29): > 10 µM (inactive)
- GI50 (HCC 2998): > 10 µM (inactive)
- GI50 (Malme-3M): > 10 µM (inactive)
- GI50 (HCT-116): > 10 µM (inactive)
- GI50 (HCT-15): > 10 µM
- GI50 (MCF7): > 10 µM (inactive)
- GI50 (NCI/ADR-RES): > 10 µM (inactive)
- GI50 (SNB-19): > 10 µM (inactive)
- GI50 (Hs-578T): > 10 µM (inactive)
- GI50 (DU-145): > 10 µM (inactive)
- GI50 (SF-539): > 10 µM (inactive)
- GI50 (K562): > 10 µM (inactive)
- GI50 (SF-295): > 10 µM (inactive)
- GI50 (NCI-H460): > 10 µM (inactive)
- GI50 (LOX IMVI): > 10 µM (inactive)
- GI50 (SK-MEL-5): > 10 µM (inactive)
- GI50 (MDA-MB-435): > 10 µM (inactive)
- GI50 (SK-MEL-28): > 10 µM (inactive)
- GI50 (M14): > 10 µM (inactive)
- GI50 (PC-3): > 10 µM (inactive)
- GI50 (HL-60): > 10 µM (inactive)
- GI50 (OVCAR-3): > 10 µM (inactive)
- GI50 (SF-268): > 10 µM (inactive)
- GI50 (A498): > 10 µM (inactive)
- GI50 (NCI-H522): > 10 µM (inactive)
- GI50 (SW-620): > 10 µM (inactive)
- GI50 (786-0): > 10 µM (inactive)
- GI50 (EKVX): > 10 µM (inactive)
- GI50 (KM12): > 10 µM (inactive)
- GI50 (SK-MEL-2): > 10 µM (inactive)
- GI50 (MDA-MB-231): > 10 µM (inactive)
- GI50 (HOP-62): > 10 µM (inactive)
- GI50 (OVCAR-8): > 10 µM (inactive)
- GI50 (A549): > 10 µM (inactive)
- GI50 (U-251): > 10 µM (inactive)
- GI50 (UACC-62): > 10 µM (inactive)
- GI50 (TK-10): > 10 µM (inactive)
- GI50 (SK-OV-3): > 10 µM (inactive)
- GI50 (T47D): > 10 µM (inactive)
- GI50 (UO-31): > 10 µM (inactive)
- GI50 (IGROV-1): > 10 µM (inactive)
- GI50 (RXF 393): > 10 µM (inactive)
- GI50 (HOP-92): > 10 µM (inactive)

Compound: CCCCCCCCCCCCCCCCOCC(Cl)COP(=O)(O)OP(=O)(O)OCC1OC(n2cc(C)c(=O)[nH]c2=O)CC1O (stereo not given)
- GI50 (BT-549): > 100 µM (inactive)
- GI50 (CAKI-1): > 100 µM (inactive)
- GI50 (UACC-257): > 100 µM (inactive)
- GI50 (MDA-N): 52.8 µM (inactive)
- GI50 (OVCAR-5): 95.1 µM (inactive)
- GI50 (NCI-H23): > 100 µM (inactive)
- GI50 (RPMI-8226): > 100 µM (inactive)
- GI50 (MOLT-4): > 100 µM (inactive)
- GI50 (SN12C): 70 µM (inactive)
- GI50 (CCRF-CEM): > 100 µM (inactive)
- GI50 (HT-29): > 100 µM (inactive)
- GI50 (HCC 2998): > 100 µM (inactive)
- GI50 (Malme-3M): > 100 µM (inactive)
- GI50 (HCT-116): > 100 µM (inactive)
- GI50 (HCT-15): > 100 µM
- GI50 (MCF7): > 100 µM (inactive)
- GI50 (NCI/ADR-RES): 71.3 µM (inactive)
- GI50 (SNB-19): > 100 µM (inactive)
- GI50 (Hs-578T): 31.4 µM (inactive)
- GI50 (SNB-75): 26.7 µM (inactive)
- GI50 (COLO 205): > 100 µM (inactive)
- GI50 (SF-539): 72.9 µM (inactive)
- GI50 (K562): > 100 µM (inactive)
- GI50 (SF-295): 57 µM (inactive)
- GI50 (NCI-H460): > 100 µM (inactive)
- GI50 (LOX IMVI): > 100 µM (inactive)
- GI50 (SK-MEL-5): > 100 µM (inactive)
- GI50 (MDA-MB-435): 57.1 µM (inactive)
- GI50 (SK-MEL-28): 55.2 µM (inactive)
- GI50 (M14): > 100 µM (inactive)
- GI50 (PC-3): 25.1 µM (inactive)
- GI50 (HL-60): > 100 µM (inactive)
- GI50 (OVCAR-3): > 100 µM (inactive)
- GI50 (ACHN): > 100 µM (inactive)
- GI50 (SF-268): 69.2 µM (inactive)
- GI50 (A498): > 100 µM (inactive)
- GI50 (NCI-H522): > 100 µM (inactive)
- GI50 (SW-620): > 100 µM (inactive)
- GI50 (786-0): > 100 µM (inactive)
- GI50 (EKVX): > 100 µM (inactive)
- GI50 (NCI-H226): 28.8 µM (inactive)
- GI50 (OVCAR-4): > 100 µM (inactive)
- GI50 (KM12): 95.7 µM (inactive)
- GI50 (SK-MEL-2): > 100 µM (inactive)
- GI50 (MDA-MB-231): 49 µM (inactive)
- GI50 (HOP-62): > 100 µM (inactive)
- GI50 (OVCAR-8): 75.9 µM (inactive)
- GI50 (A549): > 100 µM (inactive)
- GI50 (U-251): > 100 µM (inactive)
- GI50 (TK-10): > 100 µM (inactive)
- GI50 (SK-OV-3): > 100 µM (inactive)
- GI50 (T47D): 97.3 µM (inactive)
- GI50 (UO-31): > 100 µM (inactive)
- GI50 (IGROV-1): 55.2 µM (inactive)
- GI50 (RXF 393): > 100 µM (inactive)
- GI50 (HOP-92): 29.5 µM (inactive)
